The numbers were not newly measured in publication PMC8155967, “Investigating the Potential of Transdermal Delivery of Avanafil Using Vitamin E-TPGS Based Mixed Micelles Loaded Films” (Pharmaceutics, 2021), which cites them from elsewhere.

Values after ≈ are worked out from the molar mass of the structure shown.

`COc1ccc(CN=c2[nH]c(N3CCC[C@H]3CO)ncc2C(=O)NCc2ncccn2)cc1Cl` [AVA, Avanafil]: the partition coefficient is on record as 2.78 and the solubility in water is 30 µg/mL (≈ 62 µM).
